PubChem BioAssay AID2060488 (Molecular Pharmacology Branch, DTP, NCI, 2025)

Test system: 966289-007-R4-J1-PDC complex spheroid viability
Assay: Anticancer human tumor 966289-007-R4-J1-PDC patient-derived pancreatic adenocarcinoma cell line growth inhibition [GQUAD]
Conditions: for IC50: curve of first compound; for viability, T/C: stronger effect = lower value
Outline: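 Tumor cells were grown as complex spheroids with HUVEC endothelial cells and mesenchymal stem cells as stroma. G-quadruplex stabilizers were combined with targeted agents over half-log dilutions from near the clinical Cmax, or from 10 microM.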

[1] = second compound 0.0316 µM, first compound 0.0316 µM
[2] = second compound 0.0316 µM, first compound 0.1 µM
[3] = second compound 0.0316 µM, first compound 0.316 µM
[4] = second compound 0.0316 µM, first compound 1 µM
[5] = second compound 0.0316 µM, first compound 3.16 µM
[6] = second compound 0.0316 µM, first compound 10 µM
[7] = second compound 0.1 µM, first compound 0.0316 µM
[8] = second compound 0.1 µM, first compound 0.1 µM
[9] = second compound 0.1 µM, first compound 0.316 µM
[10] = second compound 0.1 µM, first compound 1 µM
[11] = second compound 0.1 µM, first compound 3.16 µM
[12] = second compound 0.1 µM, first compound 10 µM
[13] = second compound 0.316 µM, first compound 0.0316 µM
[14] = second compound 0.316 µM, first compound 0.1 µM
[15] = second compound 0.316 µM, first compound 0.316 µM
[16] = second compound 0.316 µM, first compound 1 µM
[17] = second compound 0.316 µM, first compound 3.16 µM
[18] = second compound 0.316 µM, first compound 10 µM
[19] = second compound 1 µM, first compound 0.0316 µM
[20] = second compound 1 µM, first compound 0.1 µM
[21] = second compound 1 µM, first compound 0.316 µM
[22] = second compound 1 µM, first compound 1 µM
[23] = second compound 1 µM, first compound 3.16 µM
[24] = second compound 1 µM, first compound 10 µM
[25] = second compound 3.16 µM, first compound 0.0316 µM
[26] = second compound 3.16 µM, first compound 0.1 µM
[27] = second compound 3.16 µM, first compound 0.316 µM
[28] = second compound 3.16 µM, first compound 1 µM
[29] = second compound 3.16 µM, first compound 3.16 µM
[30] = second compound 3.16 µM, first compound 10 µM
[31] = second compound 10 µM, first compound 0.0316 µM
[32] = second compound 10 µM, first compound 0.1 µM
[33] = second compound 10 µM, first compound 0.316 µM
[34] = second compound 10 µM, first compound 1 µM
[35] = second compound 10 µM, first compound 3.16 µM
[36] = second compound 10 µM, first compound 10 µM
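Further: spheroids exposed to the agents for seven days before readout.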
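Wherever viability, T/C is given: percent viability relative to DMSO vehicle control wells taken as 100%.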

COc1ncnc(C2CC2)c1-c1ncc2cnn(Cc3ccc(-c4nc(C(F)(F)F)cn4C(C)C)cc3)c2n1 + Cc1cnc(CNC(=O)c2c(=O)c3ccc(N4CCCN(C)CC4)nc3n3c2sc2ccccc23)cn1
IC50 (second compound 0.0316 µM): > 10000 nM
IC50 (second compound 0.1 µM): < 31.6 nM
IC50 (second compound 0.316 µM): < 31.6 nM
IC50 (second compound 1 µM): < 31.6 nM
IC50 (second compound 3.16 µM): < 31.6 nM
IC50 (second compound 10 µM): < 31.6 nM
viability, T/C [1]: 105%
viability, T/C [2]: 94.2%
viability, T/C [3]: 103%
viability, T/C [4]: 92.9%
viability, T/C [5]: 101%
viability, T/C [6]: 97.3%
viability, T/C [7]: 24.4%
viability, T/C [8]: 24.1%
viability, T/C [9]: 25.3%
viability, T/C [10]: 23.8%
viability, T/C [11]: 26.4%
viability, T/C [12]: 29.3%
viability, T/C [13]: 9.38%
viability, T/C [14]: 10.1%
viability, T/C [15]: 9.14%
viability, T/C [16]: 10.4%
viability, T/C [17]: 10.8%
viability, T/C [18]: 10.4%
viability, T/C [19]: 6.44%
viability, T/C [20]: 5.74%
viability, T/C [21]: 6.97%
viability, T/C [22]: 5.21%
viability, T/C [23]: 5.65%
viability, T/C [24]: 7.13%
viability, T/C [25]: 4.34%
viability, T/C [26]: 4.38%
viability, T/C [27]: 4.76%
viability, T/C [28]: 4.44%
viability, T/C [29]: 5.14%
viability, T/C [30]: 5.37%
viability, T/C [31]: 0.08%
viability, T/C [32]: 0.13%
viability, T/C [33]: 0.17%
viability, T/C [34]: 0.16%
viability, T/C [35]: 0.4%
viability, T/C [36]: 0.41%

Cc1[nH]c2ccccc2c1CCNCc1ccc(/C=C/C(=O)NO)cc1 + Cc1cnc(CNC(=O)c2c(=O)c3ccc(N4CCCN(C)CC4)nc3n3c2sc2ccccc23)cn1
IC50 (second compound 0.0316 µM): 46.9 nM
IC50 (second compound 0.1 µM): < 0.999 nM
IC50 (second compound 0.316 µM): < 0.999 nM
IC50 (second compound 1 µM): < 0.999 nM
IC50 (second compound 3.16 µM): < 0.999 nM
IC50 (second compound 10 µM): < 0.999 nM
viability, T/C (second compound 0.0316 µM, first compound 0.000999 µM): 120%
viability, T/C (second compound 0.0316 µM, first compound 0.00316 µM): 109%
viability, T/C (second compound 0.0316 µM, first compound 0.00999 µM): 110%
viability, T/C [1]: 72%
viability, T/C (second compound 0.0316 µM, first compound 0.0999 µM): 7.63%
viability, T/C [3]: 2.65%
viability, T/C (second compound 0.1 µM, first compound 0.000999 µM): 36.1%
viability, T/C (second compound 0.1 µM, first compound 0.00316 µM): 41.1%
viability, T/C (second compound 0.1 µM, first compound 0.00999 µM): 39.4%
viability, T/C [7]: 20.3%
viability, T/C (second compound 0.1 µM, first compound 0.0999 µM): 5.43%
viability, T/C [9]: 2.01%
viability, T/C (second compound 0.316 µM, first compound 0.000999 µM): 10.3%
viability, T/C (second compound 0.316 µM, first compound 0.00316 µM): 10.7%
viability, T/C (second compound 0.316 µM, first compound 0.00999 µM): 9.3%
viability, T/C [13]: 5.04%
viability, T/C (second compound 0.316 µM, first compound 0.0999 µM): 2.95%
viability, T/C [15]: 1.25%
viability, T/C (second compound 1 µM, first compound 0.000999 µM): 7.03%
viability, T/C (second compound 1 µM, first compound 0.00316 µM): 5.38%
viability, T/C (second compound 1 µM, first compound 0.00999 µM): 5.15%
viability, T/C [19]: 3.16%
viability, T/C (second compound 1 µM, first compound 0.0999 µM): 1.45%
viability, T/C [21]: 0.33%
viability, T/C (second compound 3.16 µM, first compound 0.000999 µM): 3.98%
viability, T/C (second compound 3.16 µM, first compound 0.00316 µM): 4.39%
viability, T/C (second compound 3.16 µM, first compound 0.00999 µM): 3.78%
viability, T/C [25]: 0.2%
viability, T/C (second compound 3.16 µM, first compound 0.0999 µM): 0.08%
viability, T/C [27]: 0.8%
viability, T/C (second compound 10 µM, first compound 0.000999 µM): 0.11%
viability, T/C (second compound 10 µM, first compound 0.00316 µM): 0.57%
viability, T/C (second compound 10 µM, first compound 0.00999 µM): 0.17%
viability, T/C [31]: 0.39%
viability, T/C (second compound 10 µM, first compound 0.0999 µM): 0.16%
viability, T/C [33]: 0.17%

O=c1[nH]cc(F)c(=O)[nH]1 + Cc1cnc(CNC(=O)c2c(=O)c3ccc(N4CCCN(C)CC4)nc3n3c2sc2ccccc23)cn1
IC50 (second compound 0.0316 µM): 152 nM
IC50 (second compound 0.1 µM): < 31.6 nM
IC50 (second compound 0.316 µM): < 31.6 nM
IC50 (second compound 1 µM): < 31.6 nM
IC50 (second compound 3.16 µM): < 31.6 nM
IC50 (second compound 10 µM): < 31.6 nM
viability, T/C [1]: 110%
viability, T/C [2]: 70.7%
viability, T/C [3]: 13.4%
viability, T/C [4]: 6.62%
viability, T/C [5]: 6.16%
viability, T/C [6]: 7.17%
viability, T/C [7]: 35.3%
viability, T/C [8]: 38.2%
viability, T/C [9]: 16.7%
viability, T/C [10]: 9.09%
viability, T/C [11]: 8.85%
viability, T/C [12]: 9.1%
viability, T/C [13]: 11%
viability, T/C [14]: 14.4%
viability, T/C [15]: 13.6%
viability, T/C [16]: 10.8%
viability, T/C [17]: 10.2%
viability, T/C [18]: 12.7%
viability, T/C [19]: 6.94%
viability, T/C [20]: 8.36%
viability, T/C [21]: 9.57%
viability, T/C [22]: 9.08%
viability, T/C [23]: 8.58%
viability, T/C [24]: 8.28%
viability, T/C [25]: 4.97%
viability, T/C [26]: 5.62%
viability, T/C [27]: 7.29%
viability, T/C [28]: 6.64%
viability, T/C [29]: 6.67%
viability, T/C [30]: 8.36%
viability, T/C [31]: 0.04%
viability, T/C [32]: 0.08%
viability, T/C [33]: 2.48%
viability, T/C [34]: 0.28%
viability, T/C [35]: 2.43%
viability, T/C [36]: 0.18%
